Values joined by “and” are separate entries in the source; they are usually repeats but may differ in a detail not shown here. Identical values can stand only once.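 Five concentrations, 48 hours, 96-well plates. At the GI50, growth is halved. TGI: concentration producing complete growth inhibition.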
Tests used:
Assay in all cases: inhibition of tumour cell growth, NCI panel, 48 h
U251 CNS = tested on: U251 CNS
HOP-62 NSCLC = tested on: HOP-62 NSCLC
MDA-MB-231 breast = tested on: MDA-MB-231 breast
HL-60(TB) leukemia = tested on: HL-60(TB) leukemia
K-562 leukemia = tested on: K-562 leukemia
CCRF-CEM leukemia = tested on: CCRF-CEM leukemia

| SMILES | TGI (U251 CNS) [µM] | TGI (HOP-62 NSCLC) [µM] | TGI (MDA-MB-231 breast) [µM] | TGI (HL-60(TB) leukemia) [µM] | TGI (K-562 leukemia) [µM] | TGI (CCRF-CEM leukemia) [µM] | GI50 (K-562 leukemia) |
| --- | --- | --- | --- | --- | --- | --- | --- |
| CC1(C)CC(=O)c2c(nc3ccc4ccccc4c3c2-c2ccc(NC(=O)CCCC(=O)Nc3ccc(-c4c5c(nc6ccc7ccccc7c46)CC(C)(C)CC5=O)cc3)cc2)C1 | > 100 | > 100 | > 100 | > 100 | > 100 | > 100 |  |
| COc1nc(N)c(NC2OC(CO)C(O)C2O)c(=O)[nH]1 (stereo not given) | > 100 | > 100 | > 100 | > 100 | > 100 | > 100 |  |
| COc1ccc2[nH]c3c(c2c1)CCn1c-3nc2ccccc2c1=O | > 25 | > 25 | > 25 | > 25 | > 25 | > 25 |  |
| CN(/N=C(\C(=O)O)c1ccccc1)C1=NCCCN1 | > 100 | > 100 | > 100 | > 100 | > 100 | > 100 |  |
| N#Cc1c(N)oc(-c2cccc([N+](=O)[O-])c2)c1C#N | 94.5 |  | > 100 | 65.1 |  | > 100 |  |
| CCC(NC(C)c1ccccc1)C(O)c1ccc(OCc2ccccc2)c(OCc2ccccc2)c1 (stereo not given) | 27.7 | 32.2 | 21.2 | 30.2 | 9.44 | 38.7 |  |
| COc1ccc(NC2Oc3cc4c(cc3C(c3cccc(OC)c3OC)C2C)OCO4)cc1 (stereo not given) | > 100 | > 100 | > 100 | 10.9 | 70.6 | 47.1 |  |
| Cc1c(/C=N/NC(=S)Nc2ccccc2Cl)c(=O)n(-c2ccccc2)n1C | > 100 | 78.2 | 35.7 | > 100 | > 100 | > 100 |  |
| C#CCOCC12C=CC(O1)C1C(=O)N(C)C(=O)C12 (stereo not given) | > 100 | > 100 | > 100 | > 100 | > 100 | > 100 | 46.4 µM and > 100 µM |
| COc1ccc(NS(=O)CCCc2ccccc2)cc1 (stereo not given) | > 100 | > 100 | > 100 | > 100 | > 100 | > 100 |  |
| O=C(c1ccccc1)c1ccc(COc2ccc(C(c3c(O)c4ccccc4oc3=O)c3c(O)c4ccccc4oc3=O)cc2)cc1 | > 100 | 47.4 | > 100 |  | 53.3 | 16.4 |  |
| N#C/C(=C\c1ccccc1)C(=O)Nc1nnc(-c2ccccc2)o1 | > 100 | > 100 | > 100 | 40.9 | > 100 | 50.6 |  |
| CNC(=O)N1CN(c2ccccc2)C2(CCN(CCCC(=O)c3ccc(F)cc3)CC2)C1=O | 60.4 | 22.8 | 90.3 | 37.8 | 49 | 70.8 |  |
| COc1c2c(cc3oc(C)cc(=O)c13)OC(=N)C(C(N)=O)C2CC(=O)c1ccc(N)cc1 (stereo not given) | > 100 |  | > 100 | > 100 | > 100 | > 100 |  |
| Cc1ccc(N2C(=O)C3c4[nH]c5ccccc5c4C4CCC(C(C)(C)C)CC4C3C2=O)cc1 (stereo not given) | 16.1 | 11.6 | 15.8 | > 74.9 | 17.5 | 15.4 |  |
| COC(=O)c1c2n(c3ccccc13)C[C@H]1OC(C)(C)O[C@@H]21 | > 100 | > 100 | > 100 | > 100 | > 100 | > 100 |  |
| N#CC(C#N)=Cc1ccc2c(c1)OC(Cl)O2 (stereo not given) | 41.4 |  |  | 44.1 | > 100 | > 100 |  |
| CCC1(CC)CC(=NNS(=O)(=O)c2ccc(C)cc2)C1 | > 100 |  | > 100 | > 100 | > 100 | > 100 |  |
| O=c1cc(-c2cccc(Cl)c2)[nH]c2ncccc12 | 29.3 | 33.4 |  | 0.152 |  | > 100 |  |
| Cc1ccc(/C=N/Nc2cnccn2)s1 | > 100 | > 100 | > 100 | > 100 | > 100 | > 100 |  |
| CCCN(C(=O)c1c(Cl)nnc(Cl)c1C(=O)c1cc(Cl)nnc1Cl)c1cc(Cl)nnc1Cl | 33.3 | 48.8 | 34.3 | 7.16 | 27.4 | 10.6 |  |
| O=C(NNC1=NCCN1)c1ccco1 | > 100 | > 100 | > 100 | > 100 | > 100 | > 100 |  |
| CCOC(=O)c1c(N2CCCC2)nsc1Nc1ccccc1 |  |  | > 100 | > 100 | > 100 | > 100 |  |
| O=[N+]([O-])/C=C1\COCc2cc3c(cc21)OCO3 | 36.5 | > 100 | 29.8 | 57.4 | > 100 | 39.1 |  |
| CN(C)CCNC(=O)c1cccc2c(NCC(=O)O)c3ccccc3nc12 | > 100 | 82.5 | 69.5 | > 100 | > 100 | > 100 |  |
| COC(=O)C1C(OC(=O)c2ccccc2)CC2CCC1N2C(N)=O (stereo not given) | > 100 | > 100 | > 100 | > 100 | > 100 | > 100 |  |
| [N-]=[N+]=Nc1c(-c2ccccc2)c(Cl)nc2ccccc12 | > 100 | > 100 | > 100 | > 100 | > 100 | > 100 |  |
| CC1CC[C@@H](C(C)C)[C@H](Oc2nnc(C3OC(CO)C(O)C3O)o2)C1 (stereo not given in full) | > 100 | > 100 | > 100 | > 100 | > 100 | > 100 |  |
| COc1cc2c(c(OC)c1OC)C(=O)[C@H](O)[C@H]2NC(N)=O | > 100 | > 100 | > 100 | > 100 | > 100 | > 100 |  |
| CC12Nc3ccccc3N1C(=O)c1ccccc12 (stereo not given) | > 100 | > 100 | > 100 | > 100 | > 100 | > 100 |  |

From PubChem BioAssay (NCI)
